Experimental data reported in patent US20210186947A1, “TOMM6-INTERACTING EXTRACTS AND COMPOUNDS FOR USE IN THE TREATMENT AND PROPHYLAXIS OF NERVOUS SYSTEM DISEASES, ATHEROSCLEROSIS, HEPATITIS B INFECTION AND HUMAN PAPILLOMA VIRUS (HPV) INFECTION” (ETH ZURICH, priority 2018, published 2021).

Test system: atherosclerotic lesions in the aorta
Test: Atherosclerotic lesion area in oil red O-stained aortas of ApoE-/- mice
Type: in vivo
Settings: 9-month-old ApoE-/- mice, 10 mg/kg/d in drinking water for 8 months
Method: ApoE−/− mice (Taconic Biosciences, Rensselaer, N.Y., USA) with deficiency of apolipoprotein E (ApoE−/−) due to disruption of the endogenous ApoE gene were used as a genetic model of atherosclerosis (Piedrahita et al., Proc. Natl. Acad. Sci. U.S.A., 89, 4471-4475, 1992). Atherosclerotic lesion area was determined by quantitative image analysis with oil red O-stained aortas. Total plasma cholesterol was determined by a commercial kit (Sigma). Mice were kept on a 12 h dark and 12 h light cycle, had free access to food and water, and were fed a standard rodent chow (AIN-95-based diet without vitamin E supplementation and with 7% fat and 0.15% cholesterol). For the study, we used ApoE−/− mice on a B6 (C57BL/6J) background and non-transgenic B6 control mice. Alizarin treatment (10 mg/kg/day in drinking water) was initiated at an age of 4 weeks and continued for eight months until the end of the observation period. […]
Alzheimer's Disease (AD) is the most frequent form of dementia in the elderly. […] Atherosclerotic lesion area was assessed with oil red O-stained aortas isolated from 9-month-old ApoE−/− mice (FIG. 17A). […] The aortic expression levels of neuronal marker genes of alizarin-treated ApoE−/− mice were determined compared to untreated ApoE−/− mice and untreated B6 mice without atherosclerosis (FIG. 17D,E).

O=C1c2ccccc2C(=O)c2c1ccc(O)c2O [Compound-1, 1,2-dihydroxyanthraquinone]
atherosclerotic lesion area, lower compared to untreated ApoE-/- mice: 3.6 fold
